Reference: patent US7772180B2, “Hepatitis C virus inhibitors” (Bristol-Myers Squibb Company, priority 2006, dated 2010)
Like-named read-outs stand apart in the source and are kept apart here.

Experiments:
[1] = molecular target: T1, HCV NS3/4A protease complex, BMS strain (UniProt P27958, species not given/STRAIN_BMS); experiment: FRET peptide assay to monitor HCV NS3/4A proteolytic activity (BMS strain); type: biochemical, Hepatitis C virus (genotype 1a); details: read-out: HCV Protease (IC50), NS3/4A BMS strain
T1 construct: other: NS3/4A BMS strain; activity range class; numeric values, unit not given; said of H77 and J4L6S; fused on or other part: A three-lysine solubilising tail at the C-terminus of NS4A; A His tag is implied by the pET21b vector and Ni-NTA purification; Both are printed for the H77 and J4L6S constructs and apply to BMS by inference
In short: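 Inhibition measured by real-time fluorescence increase as the protease cleaves RET S1 FRET depsipeptide (2 μM final). Enzyme: >90% pure BMS-strain (1a) NS3/4A at 2-3 nM final, or 300 pM with 50 μg/ml BSA for potent compounds. Buffer: 50 mM HEPES pH 7.5, 0.15 M NaCl, 0.1% Triton, 15% glycerol, 10 mM βME.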

[2] = tested on: HCV replicon (strain 1b) in HUH-7 cells; experiment: HCV replicon FRET assay; type: cell-based, Hepatitis C virus
[3] = Hepatitis C virus, Huh-7, read-out: HCV Pro Replicon (EC50), HCV replicon cell assay, activity range class
[4] = read-out: HCV Pro Replicon (EC50), HCV replicon cell assay, activity range class

T1 sequence (P27958 1027-1657, change not shown, one chain of several): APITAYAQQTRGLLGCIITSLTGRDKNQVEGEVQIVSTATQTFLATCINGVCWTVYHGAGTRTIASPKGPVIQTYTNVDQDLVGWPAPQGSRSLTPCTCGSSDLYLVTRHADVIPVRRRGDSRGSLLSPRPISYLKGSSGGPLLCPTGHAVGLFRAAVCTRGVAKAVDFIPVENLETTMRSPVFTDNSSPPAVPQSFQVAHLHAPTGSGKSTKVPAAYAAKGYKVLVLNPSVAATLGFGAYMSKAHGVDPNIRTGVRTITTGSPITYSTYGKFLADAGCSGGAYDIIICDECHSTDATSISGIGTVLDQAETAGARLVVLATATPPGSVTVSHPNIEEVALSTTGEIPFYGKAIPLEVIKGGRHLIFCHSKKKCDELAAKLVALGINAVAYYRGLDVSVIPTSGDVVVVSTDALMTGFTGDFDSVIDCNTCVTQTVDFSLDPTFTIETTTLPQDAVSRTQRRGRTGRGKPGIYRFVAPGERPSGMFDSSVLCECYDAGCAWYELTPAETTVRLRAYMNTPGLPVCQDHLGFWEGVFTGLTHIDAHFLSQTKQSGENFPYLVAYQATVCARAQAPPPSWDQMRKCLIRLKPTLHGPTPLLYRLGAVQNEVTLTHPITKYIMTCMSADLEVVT

| Compound | IC50 ([1]; activity range class) | EC50 [2, 3] | EC50 [2, 4] | IC50 ([1]; numeric values, unit inferred) | EC50 ([2]; HCV replicon cell assay, numeric values, unit inferred, read-out: HCV Pro Replicon (EC50)) |
| --- | --- | --- | --- | --- | --- |
| C=C[C@@H]1C[C@]1(NC(=O)[C@@H]1C[C@@H](Oc2ncc(OC)c3ccc(Cl)cc23)CN1C(=O)C(CC)Nc1nsnc1OC)C(=O)CS(=O)(=O)C1CC1 (stereo partly drawn) [Compound 241] | > 0.2 µM | > 1 µM | – | – | – |
| C=C[C@@H]1C[C@]1(NC(=O)[C@@H]1C[C@@H](Oc2ncc(OC)c3ccc(Cl)cc23)CN1C(=O)C(Nc1nsnc1OC)C(C)C)C(=O)NS(=O)(=O)C1CC1 (stereo partly drawn) [Compound 242] | 0.0006 to 0.02 µM | 0.003 to 0.1 µM | – | – | – |
| C=C[C@@H]1C[C@]1(NC(=O)[C@@H]1C[C@@H](Oc2ncc(OC)c3ccc(Cl)cc23)CN1C(=O)C(Nc1nsnc1OCC)C(C)(C)C)C(=O)NS(=O)(=O)C1CC1 (stereo partly drawn) [Compound 243] | 0.0006 to 0.02 µM | 0.003 to 0.1 µM | – | – | – |
| C=CCCCCCC(Nc1ccc(OC)nc1)C(=O)N1C[C@H](Oc2ncc(OC)c3ccc(Cl)cc23)C[C@H]1C(=O)N[C@]1(C(=O)NS(=O)(=O)C2CC2)C[C@H]1C=C (stereo partly drawn) [Compound 410] | > 0.2 µM | – | 0.003 to 0.1 µM | – | – |
| C=CCCCCCC(Nc1ccc(OC)nc1)C(=O)N1C[C@H](Oc2ncc(OC)c3ccc(Cl)cc23)C[C@H]1C(=O)N[C@]1(C(=O)NS(=O)(=O)C2CC2)C[C@H]1C=C (stereo partly drawn) [Compound 411] | > 0.2 µM | – | 0.1 to 1 µM | – | – |
| (4R)-4-((7-chloro-4-methoxy-1-isoquinolinyl)oxy)-N-((1R,2S)-1-((cyclopropylsulfonyl)carbamoyl)-2-vinylcyclopropyl)-1-((2R)-2-((4-ethoxy-1,2,5-thiadiazol-3-yl)amino)butanoyl)-L-prolinamide [Compound 233B] | – | – | – | 1.3 µM | 2.63 µM |
